Drawing on patent publication US9962333B2, “Timed release of substances to treat ocular disorders” (BOARD OF TRUSTEES OF NORTHERN ILLINOIS UNIVERSITY, priority 2013, dated 2018), this text covers solubility for one molecule.

The data set in a line: physchem. Particulars: 37 °C, aqueous with cosolvent or surfactant or cyclodextrin, thermodynamic from solid. The procedure:
(a) 50 mg of riboflavin was mixed with different concentrations of HP-β-CD (5, 10, 15, 20, 25, 30 mM)
(b) the mixture was stirred on rotary shaker for 72 hours at 37° C.
(c) after reaching equilibrium, samples were filtered through a 0.2 μm filter and suitably analyzed using UV-vis spectrophotometer.
(b) The mixture was stirred for 72 hrs. on a rotary shaker at 37° C.
(c) After reaching equilibrium, samples were filtered through 0.2 μm membrane filter & analyzed using a spectrophotometer.
(b) The solutions were left to equilibrate for 3 days on a shaker.
(c) After filtration, the solutions were analyzed by UV-vis spectroscopy.
The UV-vis absorption spectrum was obtained for each solution.
The data was used to plot a phase solubility curve for both the cyclodextrine.
50 mg of ofloxacin was added to each sample and then shaken for 72 hrs to attain equilibrium.

In brackets after ≈: the same amount, converted by molar mass.

On to `Cc1cc2nc3c(=O)[nH]c(=O)nc-3n(C[C@H](O)[C@H](O)[C@H](O)CO)c2cc1C` [Riboflavin, riboflavin], for which the solubility at 72 h is, setting by setting: (Solubility for HPβ CD) 33 mg/mL (≈ 87.8 mM); (Solubility for methyl β CD) 31.1 mg/mL (≈ 82.6 mM).

As a reminder, the solubility is the concentration that dissolves in the medium under given conditions.
